We go through 49 compounds from US7122549B2, “Saframycins, analogues and uses thereof” (President and Fellows of Harvard College, priority 2000, dated 2006).

For one test, the system named is A375 malignant melanoma. Briefly: Cell Growth Inhibition Assay (MTS, CellTiter 96 AQueous). In kind it is cell-based. The protocol:
(§1) The two cell lines used, A375 malignant melanoma and A-549 lung carcinoma, were purchased from American Type Culture Collection. These cells were cultured at 37° C. in a humidified atmosphere of 5% CO2 in Dulbecco's Modified Eagle Medium (DMEM) supplemented with 10% fetal bovine serum (FBS), 0.1% glutamine and 0.1% penicillin-streptomycin. DMEM, FBS, glutamine and penicillin-streptomycin were purchased from Life Technologies (Grand Island, N.Y.).
(§2) Exponentially growing cells were seeded at ˜3000 (50 μl) cells per well in 96-well flat-bottomed microtiter plates and then incubated at 37° C. in a humidified atmosphere of 5% CO2/95% air for 24 hr. An analogue was dissolved in dimethyl sulfoxide to give a concentration of 0.6 mg/ml, which was further diluted with the culture medium containing 10% fetal bovine serum. Nine three-fold dilutions were prepared with the maximum concentration being 1/300 of the original DMSO solution (i.e. 2000 ng/ml). This procedure was repeated for each analogue. Fifty microliters of the obtained dilutions were each transferred into the well of the above described culture plate. The cell culture was then placed back into the incubator at 37° C. under the 5% CO2 atmosphere for 72 hr. Cell proliferation was quantified by using the CellTiter 96 AQueous Assay (Promega). In this assay a mixture solution (20 μl) of MTS [Owen's reagent: 3-(4,5-dimethylthiazol-2-yl)-5-(3-carbomethoxyphenyl)-2-(4-sulfophenyl)-2H-tetrazolium inner salt] and phenazine methosulfate (PMS) was added to each well. The resulting mixtures were further incubated for 2.5 hr. The absorbance was measured with a microplate reader at a test wavelength of 540 nm and a reference wavelength of 655 nm to serve as an index of the number of viable cells. The inhibitory ratio of the test compound was calculated according to the following formula: inhibition ratio (%)=100×(C−T)/C, where T is an absorbance of the well containing a test compound and C is an absorbance of the well containing no test compound. The IC50 was calculated by the least squares method.

The test system of the next test is A-549 lung carcinoma. The test is described as above. In kind it is cell-based. As for the experimental part: as §1, §2
Where [1] appears, read: Homo sapiens, A-375, Table 1, A375 cells, 72 hr with compound, MTS readout, read-out: IC50, nM A375.
[2] abbreviates: Homo sapiens, Table 1, A549 cells, 72 hr with compound, MTS readout, read-out: IC50, nM A549.
[3] abbreviates: Homo sapiens, A-375, Table 3, A375 cells, 72 hr with compound, MTS readout, read-out: IC50 (nM) Cell line A375-Melanoma.
Setting [4] is: Homo sapiens, Table 3, A549 cells, 72 hr with compound, MTS readout, read-out: IC50 (nM) Cell line A549-Lung.
Setting [5] is: Homo sapiens, A-375, Table 2, A375 cells, 72 hr with compound, MTS readout, read-out: IC50 (nM) Cell line A375-Melanoma.
Setting [6] is: Homo sapiens, Table 2, A549 cells, 72 hr with compound, MTS readout, read-out: IC50 (nM) Cell line A549-Lung.
The mark [7] stands for this setting: Homo sapiens, A-375, 72 h, read-out: IC50, nM A375.
[8] abbreviates: Homo sapiens, A549, 72 h, read-out: IC50, nM A549.

SMILES strings stand for the structures. Like-named read-outs stand apart in the source and are kept apart here.

For the compound `NC(=O)c1ccco1`, the IC50 in the test with A375 malignant melanoma (setting [1]) was 13 nM; with A-549 lung carcinoma (setting [2]), 290 nM.
The like results for `Cc1ccc(S(N)(=O)=O)cc1` were, in that order, 81 nM and 860 nM.
The like results for `NCc1ccccc1` were, in that order, 330 nM and 1100 nM.
With `NC(=O)c1cnc2ccccc2n1`, the figures for the IC50 in the test with A375 malignant melanoma (setting [1]) and in the test with A-549 lung carcinoma (setting [2]) were 1.2 nM and 4.7 nM, respectively.
As to `NC(=O)c1c(F)cccc1F`, the figures for the IC50 in the test on A375 malignant melanoma (setting [1]) and in the test with A-549 lung carcinoma (setting [2]) were 12 nM and 395 nM, respectively.
In the case of `NC(=O)c1c(O)ccc2ccccc12`, the IC50 is 23 nM in the test on A375 malignant melanoma (setting [1]) and 320 nM in the test with A-549 lung carcinoma (setting [2]).
With `NC(=O)c1nccc2ccccc12`, the IC50 was 2.5 nM in the test on A375 malignant melanoma (setting [1]) and 32 nM in the test on A-549 lung carcinoma (setting [2]).
For `COc1c(C)c(OC)c2c(c1O)[C@@H]1[C@@H]3Cc4c(OC)c(C)c(OC)c(O)c4[C@H](CNC(=O)c4ccc5ccccc5n4)N3[C@@H](O)[C@H](C2)N1C` [drawing 172 X = OH, Hemiaminal derivative], the IC50 in the test on A375 malignant melanoma (setting [3]) came out at 0.9 nM; with A-549 lung carcinoma (setting [4]) it was 13 nM.
In the case of `NC(=O)c1cccc2[nH]ccc12`, the values for the concentration for half-maximal inhibition (IC50) with A375 malignant melanoma (setting [1]) and with A-549 lung carcinoma (setting [2]) were 85 nM and 1100 nM, respectively.
The like results for `NC(=O)[C@@H]1Cc2ccccc2CN1` were, in that order, 8.3 nM and 200 nM.
As to `COc1c(C)c(OC)c2c(c1O)[C@@H]1[C@@H]3Cc4c(OC)c(C)c(OC)c(O)c4[C@H](CNC(=O)c4ccc5cc(OCCCCN)ccc5n4)N3[C@@H](C#N)[C@H](C2)N1C`, the IC50 in the test on A375 malignant melanoma (setting [5]) is 29 nM; with A-549 lung carcinoma (setting [6]) it was 118 nM.
In the case of `COc1ccc(OC(N)=O)cc1`, the results for the IC50 in the test on A375 malignant melanoma (setting [7]) and in the test on A-549 lung carcinoma (setting [8]) were 3.4 nM and 96 nM, respectively.
With `COc1c(C)c(OC)c2c(c1O)[C@@H]1[C@@H]3Cc4c(OC)c(C)c(OC)c(O)c4[C@H](CNC(=O)c4ccc5ccccc5n4)N3[C@@H](OC)[C@H](C2)N1C` [drawing 172 X = OCH3, Methoxy derivative], the IC50 in the test with A375 malignant melanoma (setting [3]) is 120 nM; in the test with A-549 lung carcinoma (setting [4]), 1100 nM.
For the compound `CCCCC[C@H]1c2c(O)c(OC)c(C)c(OC)c2C[C@H]2[C@H]3c4c(O)c(OC)c(C)c(OC)c4C[C@@H]([C@H](C#N)N12)N3C`, the half-inhibitory concentration (IC50) with A375 malignant melanoma (setting [5]) worked out at 116 nM; with A-549 lung carcinoma (setting [6]) it was 1400 nM.
Consider `NC(=O)OCc1ccccc1`, for which the IC50 in the test with A375 malignant melanoma (setting [7]) was 3.9 nM; with A-549 lung carcinoma (setting [8]) it was 50 nM.
As for `NC(=O)/C=C/c1ccccc1`, the IC50 came out at 2.9 nM in the test on A375 malignant melanoma (setting [1]) and 44 nM with A-549 lung carcinoma (setting [2]).
On to `COC1=C(C)C(=O)C2=C(C1=O)[C@@H]1[C@@H]3CC4=C(C(=O)C(OC)=C(C)C4=O)[C@H](CNC(=O)C(C)=O)N3[C@@H](C#N)[C@H](C2)N1C` [Saframycin A, (−)-Saframycin A, reference compound], for which the IC50 in the test on A375 malignant melanoma (Table 1, A375 cells, 72 hr with compound, MTS readout, read-out: IC50, nM A375) worked out at 5.3 nM; in the test on A-549 lung carcinoma (Table 1, A549 cells, 72 hr with compound, MTS readout, read-out: IC50, nM A549), 133 nM.
Consider `NC(=O)c1cccc2ccccc12`, for which the 50% inhibitory concentration (IC50) in the test with A375 malignant melanoma (setting [1]) was 43 nM; in the test on A-549 lung carcinoma (setting [2]), 390 nM.
The like results for `COc1c(C)c(OC)c2c(c1O)[C@@H]1[C@@H]3Cc4c(OC)c(C)c(OC)c(O)c4[C@H](CN(Cc4ccccn4)Cc4ccccn4)N3[C@@H](C#N)[C@H](C2)N1C` [N-(Pyr)2, bis-2-Pyridyl Derivative] were, in that order, > 1400 nM and > 1400 nM.
Take `NC(=O)c1ncccc1O`: the IC50 was 1.2 nM in the test with A375 malignant melanoma (setting [1]) and 11.3 nM with A-549 lung carcinoma (setting [2]).
The like results for `NC(=O)c1cnccn1` were, in that order, 4.4 nM and 100 nM.
`Cc1ccc(C(N)=O)c(O)c1`: the IC50 came out at 1.2 nM in the test with A375 malignant melanoma (setting [1]) and 6.5 nM with A-549 lung carcinoma (setting [2]).
The like results for `COc1cc(C(N)=O)cc(OC)c1OC` were, in that order, 14 nM and 390 nM.
The like results for `O=C1NC(=O)c2ncccc21` were, in that order, > 510 nM and > 510 nM.
The like results for `COc1cccc(C(N)=O)c1` were, in that order, 4.1 nM and 99 nM.
Turning to `NCc1ccccn1`, the values for the IC50 in the test with A375 malignant melanoma (setting [1]) and with A-549 lung carcinoma (setting [2]) were 260 nM and 700 nM, respectively.
As for `COc1c(C)c(OC)c2c(c1O)[C@@H]1[C@@H]3Cc4c(OC)c(C)c(OC)c(O)c4[C@H](CNC(=O)c4ccc5ccccc5n4)N3C[C@H](C2)N1C` [drawing 172 X = H, Reduced quinalascidin analog], the IC50 in the test with A375 malignant melanoma (setting [3]) and with A-549 lung carcinoma (setting [4]) was > 9000 nM in each case.
Turning to `O=C1NC(=O)c2ccccc21`, the IC50 was 1.7 nM with A375 malignant melanoma (setting [1]) and 9.2 nM in the test on A-549 lung carcinoma (setting [2]).
`COc1c(C)c(OC)c2c(c1O)[C@@H]1[C@@H]3Cc4c(OC)c(C)c(OC)c(O)c4[C@H](CNC(=O)c4ccccc4)N3[C@@H](C#N)[C@H](C2)N1C` [drawing 136 R = H, Benzamide derivative]: the figures for the IC50 in the test with A375 malignant melanoma (setting [1]) and in the test on A-549 lung carcinoma (setting [2]) were 4.1 nM and 91 nM, respectively.
As to `NC(=O)[C@@H](N)Cc1c[nH]c2ccccc12`, the IC50 is 310 nM with A375 malignant melanoma (setting [1]) and > 1400 nM in the test with A-549 lung carcinoma (setting [2]).
With `Cc1ccc2ccc(C(N)=O)nc2c1`, the half-maximal inhibitory concentration (IC50) with A375 malignant melanoma (setting [1]) worked out at 1.4 nM; with A-549 lung carcinoma (setting [2]) it was 4.6 nM.
On to `COc1c(C)c(OC)c2c(c1O)[C@@H]1[C@@H]3Cc4c(OC)c(C)c(OC)c(O)c4[C@H](CNC(=O)c4ccc5cc(OCCCCNC(=O)CCCCCNC(=O)CCCCCNC(=O)CCCC[C@@H]6SC[C@@H]7NC(=O)N[C@@H]76)ccc5n4)N3[C@@H](C#N)[C@H](C2)N1C` [Biotinylated derivative, Biotinylated Quinalascidin Analog 1], for which the IC50 with A375 malignant melanoma (Homo sapiens, A-375, 72 h, read-out: IC50 (nM) Cell line A375-Melanoma) came out at 210 nM; in the test with A-549 lung carcinoma (Homo sapiens, A549, 72 h, read-out: IC50 (nM) Cell line A549-Lung), 990 nM.
On to `COc1c(C)c(OC)c2c(c1O)[C@@H]1[C@@H]3Cc4c(OC)c(C)c(OC)c(O)c4[C@H](CNC(=O)c4ccccc4F)N3[C@@H](C#N)[C@H](C2)N1C` [drawing 136 R = F, 2-Fluorobenzamide derivative], for which the results for the IC50 in the test on A375 malignant melanoma (setting [1]) and with A-549 lung carcinoma (setting [2]) were 2.5 nM and 37 nM, respectively.
On to `NC(=O)Cc1ccccc1`, for which the IC50 in the test with A375 malignant melanoma (setting [7]) was determined as 34 nM; with A-549 lung carcinoma (setting [8]) it was 1200 nM.
The like results for `NC(=O)C(=O)c1c[nH]c2ccccc12` were, in that order, 9.6 nM and 110 nM.
Consider `COc1c(C)c(OC)c2c(c1O)[C@@H]1[C@@H]3Cc4c(OC)c(C)c(OC)c(O)c4[C@H](CNC(=O)c4ccc5cc(Cl)ccc5n4)N3[C@@H](C#N)[C@H](C2)N1C` [drawing 162 R = Cl (14), 6-Chloroquinoline-2-carboxylic acid amide derivative], for which the IC50 in the test on A375 malignant melanoma (setting [1]) is 1.5 nM; in the test with A-549 lung carcinoma (setting [2]), 4.1 nM.
The like results for `NC(=O)c1cc(O)c2cc(Cl)ccc2n1` were, in that order, 13 nM and 74 nM.
The like results for `NC(=O)c1ncc(Br)c2ccccc12` were, in that order, 9.2 nM and 25 nM.
In the case of `COc1c(C)c(OC)c2c(c1O)[C@@H]1[C@@H]3Cc4c(OC)c(C)c(OC)c(O)c4[C@H](CNC(=O)c4ccccc4-c4ccccc4)N3[C@@H](C#N)[C@H](C2)N1C` [drawing 136 R = Phenyl, Biphenyl-2-carboxylic acid amide derivative], the figures for the IC50 in the test with A375 malignant melanoma (setting [1]) and in the test on A-549 lung carcinoma (setting [2]) were 34 nM and 330 nM, respectively.
The like results for `NC(=O)[C@H](Cc1c[nH]c2ccccc12)NC(=O)OCc1ccccc1` were, in that order, 96 nM and 1100 nM.
As for `NC(=O)c1c(F)c(F)c(F)c(F)c1F`, the IC50 in the test with A375 malignant melanoma (setting [1]) worked out at 8.5 nM; with A-549 lung carcinoma (setting [2]), 100 nM.
Take `NC(=O)c1c[nH]c2ccccc12`: the figures for the IC50 with A375 malignant melanoma (setting [1]) and with A-549 lung carcinoma (setting [2]) were 76 nM and 1200 nM, respectively.
The like results for `NC(=O)c1cc2cc(F)ccc2[nH]1` were, in that order, 2.5 nM and 26 nM.
For the compound `NC(=O)c1cc(O)c2ccc(Cl)cc2n1`, the IC50 in the test on A375 malignant melanoma (setting [1]) came to 7.5 nM; in the test on A-549 lung carcinoma (setting [2]) it was 42 nM.
On to `NC(=O)c1cc2ccccc2[nH]1`, for which the values for the IC50 in the test with A375 malignant melanoma (setting [1]) and in the test with A-549 lung carcinoma (setting [2]) were 2.7 nM and 31 nM, respectively.
The like results for `NC(=O)c1ccccn1` were, in that order, 3.3 nM and 40 nM.
The like results for `NC(=O)Nc1ccccc1` were, in that order, 37 nM and 890 nM.
The like results for `NC(=O)C(=O)Cc1ccccc1` were, in that order, 2.4 nM and 39 nM.
On to `NC(=O)C1NCCc2ccccc21` (stereo not shown), for which the IC50 in the test with A375 malignant melanoma (setting [1]) is 3440 nM.
